Assay results reported in patent US20050060764A1, “Mouse model for bone metabolism” (priority 2003, published 2005).
Strand notation (5' to 3'): a small letter for the sugar, then the base; units joined by * are phosphorothioate-linked, units joined directly phosphodiester-linked; [ ] holds rarer units or linkages, { } end groups; capitals alone tell only the bases. e = 2'-O-(2-methoxyethyl) (MOE); [5mC] = 5-methylcytosine; d = 2'-deoxy (DNA)

test system: rat RANKL mRNA; experiment: Antisense inhibition of rat RANKL mRNA levels in UMR-106 cells, quantitative real-time PCR (Table 3); type: cell-based; parameters: concentration or dose not given beside the values; conditions: averages from three experiments
Protocol: Cells were seeded onto 24-well plates (Falcon-353047) at a density of […] for use in antisense oligonucleotide transfection.
Cells are treated and data are obtained in triplicate. […] Cells were harvested 16-24 hours after oligonucleotide treatment.
PCR reagents were obtained from Invitrogen Corporation, (Carlsbad, Calif.).
Probes and primers to rat RANKL were designed to hybridize to a rat RANKL sequence, using published sequence information (GenBank accession number NM_057149.1, incorporated herein as SEQ ID NO:18). For rat RANKL the PCR primers were: • forward primer: […] (SEQ ID NO:19) • reverse primer: […] (SEQ ID NO: 20) and the • PCR probe was: FAM-[…]-TAMRA (SEQ ID NO: 21) where FAM is the fluorescent reporter dye and TAMRA is the quencher dye. For rat GAPDH the PCR primers were: • forward primer: […](SEQ ID NO:22) • reverse primer: […](SEQ ID NO:23) and the • PCR probe was: 5′ JOE-[…]-TAMRA 3′ (SEQ ID NO: 24) where JOE is the fluorescent reporter dye and TAMRA is the quencher dye.
In accordance with the present invention, a second series of antisense compounds was designed to target different regions of the rat RANKL RNA, using published sequences (GenBank accession number NM_057149.1, incorporated herein as SEQ ID NO: 18, and GenBank accession number AF425669.1, incorporated herein as SEQ ID NO: 200). […] All cytidine residues are 5-methylcytidines. […] If present, “N.D.” indicates “no data”.

In the case of “gcatatccatgctaaggctc (eG*e[5mC]*eA*eT*eA*dT*d[5mC]*d[5mC]*dA*dT*dG*d[5mC]*dT*dA*dA*eG*eG*e[5mC]*eT*e[5mC]; antisense) [ISIS 286643, 2′-MOE gapmer targeted to rat RANKL]”, the “% INHIB (inhibition of rat RANKL mRNA levels)” value (“% INHIB” for short) is reported as “at least 40%”.
With “tgtggccccacaatgtgttg (eT*eG*eT*eG*eG*d[5mC]*d[5mC]*d[5mC]*d[5mC]*dA*d[5mC]*dA*dA*dT*dG*eT*eG*eT*eT*eG; antisense) [ISIS 286607, 2′-MOE gapmer targeted to rat RANKL]” the “% INHIB” value was “at least 40%”.
In the case of “acagagcgatgctgcagacc (antisense eA*e[5mC]*eA*eG*eA*dG*d[5mC]*dG*dA*dT*dG*d[5mC]*dT*dG*d[5mC]*eA*eG*eA*e[5mC]*e[5mC]) [ISIS 286589, 2′-MOE gapmer targeted to rat RANKL]”, the “% INHIB” value is reported as “at least 40%”.
“tgttggcgtacaggtaatag (eT*eG*eT*eT*eG*dG*d[5mC]*dG*dT*dA*d[5mC]*dA*dG*dG*dT*eA*eA*eT*eA*eG; antisense) [ISIS 286626, 2′-MOE gapmer targeted to rat RANKL]” was tested, and the “% INHIB” value was “at least 40%”.
In the case of “gacctgtacagggtcgagag (eG*eA*e[5mC]*e[5mC]*eT*dG*dT*dA*d[5mC]*dA*dG*dG*dG*dT*d[5mC]*eG*eA*eG*eA*eG; antisense) [ISIS 286647, 2′-MOE gapmer targeted to rat RANKL]”, the “% INHIB” value is reported as “at least 40%”.
In the case of “gtcttacacatgtatctaca (eG*eT*e[5mC]*eT*eT*dA*d[5mC]*dA*d[5mC]*dA*dT*dG*dT*dA*dT*e[5mC]*eT*eA*e[5mC]*eA; antisense) [ISIS 286644, 2′-MOE gapmer targeted to rat RANKL]”, the “% INHIB” value is reported as “at least 40%”.
With “tccagagtcgagtcctgcaa (eT*e[5mC]*e[5mC]*eA*eG*dA*dG*dT*d[5mC]*dG*dA*dG*dT*d[5mC]*d[5mC]*eT*eG*e[5mC]*eA*eA; antisense) [ISIS 286604, 2′-MOE gapmer targeted to rat RANKL]” the “% INHIB” value was “at least 40%”.
“acttatttgcaggttccagc (eA*e[5mC]*eT*eT*eA*dT*dT*dT*dG*d[5mC]*dA*dG*dG*dT*dT*e[5mC]*e[5mC]*eA*eG*e[5mC]; antisense) [ISIS 286654, 2′-MOE gapmer targeted to rat RANKL]” was tested, and the “% INHIB” value was “at least 40%”.

Going from “286596 (antisense eT*e[5mC]*eT*eG*eT*dT*dA*dG*dG*dA*dT*d[5mC]*d[5mC]*dA*dT*e[5mC]*eT*eG*e[5mC]*eG) [compound 286596]” to “286627 (antisense eG*e[5mC]*eA*eA*eA*dT*dG*dT*dT*dG*dG*d[5mC]*dG*dT*dA*e[5mC]*eA*eG*eG*eT) [compound 286627]”, the “% INHIB” value falls from 58% to 53%.

Compared with “286599 (antisense e[5mC]*eG*e[5mC]*eG*eT*dG*d[5mC]*dT*dG*dT*d[5mC]*dT*dT*d[5mC]*dT*eG*eA*eT*eA*eT) [compound 286599]”, “286649 (antisense eT*eA*eG*eA*e[5mC]*d[5mC]*d[5mC]*dA*dG*dA*dG*dA*d[5mC]*dT*dA*eT*eG*eT*eA*eT) [compound 286649]” is lower in “% INHIB” value: 46% for the first, 25% for the second.

Going from “286616 (antisense e[5mC]*eA*eT*eG*eT*dT*dA*dG*dA*dG*dA*dT*d[5mC]*dT*dT*eG*eG*e[5mC]*e[5mC]*e[5mC]) [compound 286616]” to “286641 (antisense e[5mC]*eT*eT*eT*eG*dA*dA*dA*dG*d[5mC]*d[5mC]*d[5mC]*d[5mC]*dA*dA*eA*eG*eT*eA*e[5mC]) [compound 286641]”, the “% INHIB” value rises from 31% to 49%.

Compared with “286611 (antisense eA*eG*eA*eG*eG*dA*d[5mC]*dA*dG*dA*d[5mC]*dT*dG*dA*d[5mC]*eT*eT*eT*eA*eT) [compound 286611]”, “286586 (antisense eG*eG*eT*eA*e[5mC]*dT*dT*dG*d[5mC]*d[5mC]*dG*dT*dA*dG*dT*e[5mC]*eT*e[5mC]*eG*eG) [compound 286586]” is higher in “% INHIB” value: 47% for the first, 63% for the second.

Going from “286609 (antisense eG*e[5mC]*eA*eG*e[5mC]*dA*dT*dT*dG*dA*dT*dG*dG*dT*dG*eA*eG*eG*eT*eG) [compound 286609]” to “180806 (antisense eG*eG*e[5mC]*eA*eG*d[5mC]*dA*dT*dT*dG*dA*dT*dG*dG*dT*eG*eA*eG*eG*eT) [compound 180806]”, the “% INHIB” value falls from 17% to 9%.

First: 286624 (antisense e[5mC]*eA*eG*eG*eT*dA*dA*dT*dA*dG*dA*dA*dG*d[5mC]*d[5mC]*eA*eT*e[5mC]*eT*eT) [compound 286624]
Second: 286639 (antisense e[5mC]*e[5mC]*e[5mC]*eA*eA*dA*dG*dT*dA*d[5mC]*dG*dT*d[5mC]*dG*d[5mC]*eA*eT*e[5mC]*eT*eT) [compound 286639]
The “% INHIB” value of the first is lower: 22% for the first, 48% for the second.

Compared with “286656 (eT*eT*eT*eT*eG*d[5mC]*dA*d[5mC]*dA*dG*dA*dA*dA*dA*d[5mC]*e[5mC]*eT*eT*eA*e[5mC]; antisense) [compound 286656]”, “286621 (antisense eA*eA*eG*e[5mC]*e[5mC]*dA*dT*d[5mC]*dT*dT*dG*dG*dT*dT*dA*eA*e[5mC]*e[5mC]*e[5mC]*eT) [compound 286621]” is higher in “% INHIB” value: 12% for the first, 33% for the second.

Going from “286595 (antisense eT*eA*eG*eG*eA*dT*d[5mC]*d[5mC]*dA*dT*d[5mC]*dT*dG*d[5mC]*dG*e[5mC]*eT*e[5mC]*eG*eA) [compound 286595]” to “286603 (antisense eA*eG*eT*e[5mC]*eG*dA*dG*dT*d[5mC]*d[5mC]*dT*dG*d[5mC]*dA*dA*eA*e[5mC]*e[5mC]*eT*eG) [compound 286603]”, the “% INHIB” value rises from 46% to 59%.

Compared with “286633 (antisense e[5mC]*e[5mC]*eA*eG*eT*dT*d[5mC]*dT*dT*dA*dG*dT*dG*d[5mC]*dT*e[5mC]*e[5mC]*e[5mC]*e[5mC]*e[5mC]) [compound 286633]”, “286620 (antisense eA*eT*e[5mC]*eT*eT*dG*dG*dT*dT*dA*dA*d[5mC]*d[5mC]*d[5mC]*dT*eT*eA*eG*eT*eT) [compound 286620]” is higher in “% INHIB” value: 4% for the first, 48% for the second.

Going from “286606 (antisense eT*eG*eT*eA*eA*dT*dT*d[5mC]*d[5mC]*d[5mC]*dT*dT*dT*dG*d[5mC]*eA*e[5mC]*eG*eG*e[5mC]) [compound 286606]” to “286637 (antisense e[5mC]*eG*e[5mC]*eA*eT*d[5mC]*dT*dT*dG*dA*dT*d[5mC]*d[5mC]*dG*dG*eA*eT*e[5mC]*e[5mC]*eA) [compound 286637]”, the “% INHIB” value falls from 37% to 27%.

Compared with “286614 (antisense eA*eT*e[5mC]*eT*eT*dG*dG*d[5mC]*d[5mC]*d[5mC]*dA*dG*d[5mC]*d[5mC]*dT*e[5mC]*eG*eA*eT*e[5mC]) [compound 286614]”, “286590 (antisense e[5mC]*eA*eG*eG*eA*dA*d[5mC]*dA*dG*dA*dG*d[5mC]*dG*dA*dT*eG*e[5mC]*eT*eG*e[5mC]) [compound 286590]” is higher in “% INHIB” value: 41% for the first, 47% for the second.

“286650 (antisense eG*eT*eG*eG*e[5mC]*dA*d[5mC]*dA*dG*dG*d[5mC]*d[5mC]*d[5mC]*dA*dG*eG*eA*eG*eT*eT) [compound 286650]” was tested, and the “% INHIB” value was 53%.
